The target of data set [1] is T1, DNA ligase 1 (Homo sapiens, UniProt P18858). The experiment in a line: Inhibition of human DNA ligase 1 expressed in Escherichia coli BL21 (DE3) cells using nicked DNA as substrate preincubated for 30 mins followed by substrate addition measured after 1 hr.
Data set [2] concerns MDA-MB-231. Kind of data set: Antiproliferative activity against human MDA-MB-231 cells after 48 hrs by MTT assay. The following applies: MDA-MB-231, 48 h. The format is functional, cell-based. (In general: Tetrazolium assays rely on reduction of a dye to a coloured formazan, in cell work by metabolically active cells.)
The subject of data set [3] is HepG2. The experiment in a line: Antiproliferative activity against human HepG2 cells after 48 hrs by MTT assay. The format is functional, cell-based. The following applies: HepG2, 48 h.
Data set [4] has as its system DLD-1. The experiment in a line: Antiproliferative activity against human DLD1 cells after 48 hrs by MTT assay. The format is functional, cell-based. As to conditions: DLD-1, 48 h.
A further data set has as its system HT-29. The experiment in a line: Antiproliferative activity against human HT-29 cells after 48 hrs by MTT assay. The class given is functional, cell-based. As to conditions: HT-29, 48 h.
The next data set concerns 4T1. Kind of data set: Antiproliferative activity against mouse 4T1 cells after 48 hrs by MTT assay. The following applies: 4T1, 48 h. The format is functional, cell-based.
Data set [5] addresses T1, DNA ligase 1. The experiment in a line: Inhibition of human DNA ligase 1 expressed in Escherichia coli BL21DE3RP cells at 50 uM using 52-mer DNA/25-mer DNA/27-mer DNA as substrate after 30 mins by Cyanin3 dye-based fluorescence assay relative to control.
Data set [6] relates to HCT-116. The experiment in a line: Antiproliferative activity against human HCT116 cells after 48 hrs by MTT assay. The class given is functional, cell-based. The following applies: HCT-116, 48 h.
A further data set concerns HeLa. Kind of data set: Antiproliferative activity against human HeLa cells after 48 hrs by MTT assay. The class given is functional, cell-based.
For data set [7], the target named is T1, DNA ligase 1. The experiment in a line: Inhibition of human DNA ligase 1 at 50 uM using 52-mer DNA/25-mer DNA/27-mer DNA as substrate by fluorescence assay relative to control.
Data set [8] has as its system HCT-116. The experiment in a line: Antiproliferative activity against human HCT116 cells relative to control. The class given is functional.
In data set [9] the target is T1, DNA ligase 1. Kind of data set: Inhibition of human DNA ligase 1 using 52-mer DNA/25-mer DNA/27-mer DNA as substrate by fluorescence assay.
A further data set concerns HEK293. Kind of data set: Cytotoxicity against HEK293 cells at 100 uM relative to control. The class given is cell-based. As to conditions: human, hek293, 100 µM.
Data set [10] concerns HCT-116. Kind of data set: Antiproliferative activity against human HCT116 cells at 100 uM relative to control. The format is functional.
In data set [11] the test system is HepG2. The experiment in a line: Antiproliferative activity against human HepG2 cells at 100 uM relative to control. The format is functional.
For another data set, the system named is A549. Kind of data set: Antiproliferative activity against human A549 cells at 100 uM relative to control. The class given is functional.
The subject of data set [12] is DLD-1. The experiment in a line: Antiproliferative activity against human DLD1 cells at 100 uM relative to control. The format is functional.
In data set [13] the test system is MDA-MB-231. The experiment in a line: Antiproliferative activity against human MDA-MB-231 cells at 100 uM relative to control. The class given is functional.

The text below walks through data of ChEMBL document CHEMBL4334494, “Recent advances in the targeting of human DNA ligase I as a potential new strategy for cancer treatment” (Eur J Med Chem, 2019).

Where only a bound is given, the exact number is not on record here.

T1 sequence (P18858 whole entry): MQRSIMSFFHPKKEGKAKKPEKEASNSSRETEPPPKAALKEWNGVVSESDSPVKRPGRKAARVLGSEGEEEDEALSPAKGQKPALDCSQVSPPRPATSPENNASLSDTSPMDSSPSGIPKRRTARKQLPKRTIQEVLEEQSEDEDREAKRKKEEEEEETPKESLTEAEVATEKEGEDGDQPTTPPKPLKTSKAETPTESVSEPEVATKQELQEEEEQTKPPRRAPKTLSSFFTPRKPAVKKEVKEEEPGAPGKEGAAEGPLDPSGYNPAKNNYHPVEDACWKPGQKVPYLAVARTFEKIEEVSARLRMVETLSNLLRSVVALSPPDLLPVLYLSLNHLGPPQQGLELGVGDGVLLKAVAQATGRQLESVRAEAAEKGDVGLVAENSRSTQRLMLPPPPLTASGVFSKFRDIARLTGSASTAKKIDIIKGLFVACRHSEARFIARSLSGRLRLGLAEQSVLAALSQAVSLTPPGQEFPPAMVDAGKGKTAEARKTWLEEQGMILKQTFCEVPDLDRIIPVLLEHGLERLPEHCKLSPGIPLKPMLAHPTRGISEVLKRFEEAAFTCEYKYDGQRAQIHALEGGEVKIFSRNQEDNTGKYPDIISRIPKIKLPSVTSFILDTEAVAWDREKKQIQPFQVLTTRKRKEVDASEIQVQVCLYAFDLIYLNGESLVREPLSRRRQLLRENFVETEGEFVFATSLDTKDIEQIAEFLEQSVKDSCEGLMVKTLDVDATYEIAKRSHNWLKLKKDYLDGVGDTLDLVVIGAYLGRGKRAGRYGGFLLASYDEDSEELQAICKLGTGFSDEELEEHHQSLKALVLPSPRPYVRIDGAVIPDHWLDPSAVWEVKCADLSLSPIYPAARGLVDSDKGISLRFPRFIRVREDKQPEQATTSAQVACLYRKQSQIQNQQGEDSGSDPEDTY

The IC50 is the midpoint of a concentration-inhibition curve. At DNA ligase 1 [1], `O=C1/C(=N\Nc2cn[nH]c(=O)c2Cl)c2cc(Br)ccc2N1c1ccc(Cl)cc1` came in with a half-maximal inhibitory concentration (IC50) of 15.5 to 18.8 µM.
The term inhibition denotes the relative decrease from the control value, in per cent. High values mean a response far below the control, low ones a response near the control. Take `O=C1/C(=C/c2ccc(F)cc2)CN(C(=S)NCCc2ccccc2)C/C1=C\c1ccc(F)cc1`: the IC50 in the data set on MDA-MB-231 [2], in the data set on HepG2 [3], in the data set with DLD-1 [4], with HT-29, in the data set with 4T1 and with HCT-116 [6] was less than 10 µM in each case. Moreover, the IC50 in the data set with HeLa is less than 10 µM. On DNA ligase 1 [5], the inhibition was more than 75%.
Consider `O=C1Nc2ccccc2/C1=N/Nc1cn[nH]c(=O)c1Cl`, for which, at DNA ligase 1 [1], the IC50 was 13.9 µM.
Consider `CCCCNC(=S)N1C/C(=C\c2ccccc2F)C(=O)/C(=C/c2ccccc2F)C1`, for which the IC50 with MDA-MB-231 [2], in the data set with HepG2 [3], in the data set on DLD-1 [4], in the data set with HT-29, with 4T1 and in the data set with HCT-116 [6] was less than 10 µM each time. Also, in the data set on HeLa, the IC50 is less than 10 µM. The compound also returned an inhibition at DNA ligase 1 [5] of more than 75%.
Consider `COc1cc([N+](=O)[O-])ccc1NC(=S)NCC12C=CC(O1)C1C(=O)N(c3ccc(C)cc3)C(=O)C12` (configuration not stated), for which the inhibition on DNA ligase 1 [7] was 98.2%.
In the case of `CCCCNC(=S)N1C/C(=C\c2ccc(C)cc2)C(=O)/C(=C/c2ccc(C)cc2)C1`, the IC50 in the data set on MDA-MB-231 [2], in the data set on HepG2 [3], in the data set with DLD-1 [4], with HT-29, in the data set on 4T1 and with HCT-116 [6] was less than 10 µM in each case. This compound had an IC50 in the data set with HeLa of less than 10 µM. In addition, the inhibition against DNA ligase 1 [5] is more than 75%.
The compound `COc1ccc(-c2cnc3c(O)nc(O)nc3n2)cc1` had an Activity in the data set with HCT-116 [8] of 70%.
For `COc1cc2c[n+](C)c3c4cc5c(cc4ccc3c2cc1OC)OCO5` [NITIDINE CHLORIDE], the midpoint of inhibition against DNA ligase 1 [9], the IC50, lay at 65.1 µM.
As to `CCCCNC(=S)N1C/C(=C\c2ccccc2C)C(=O)/C(=C/c2ccccc2C)C1`, the IC50 with MDA-MB-231 [2], in the data set with HepG2 [3], in the data set with DLD-1 [4], in the data set on HT-29, with 4T1 and in the data set on HCT-116 [6] was less than 10 µM in each case. In the data set with HeLa, this compound registered a half-maximal inhibitory concentration (IC50) of less than 10 µM. At DNA ligase 1 [5], the inhibition was more than 75%.
Take `O=C1/C(=N\Nc2cn[nH]c(=O)c2Cl)c2ccccc2N1c1ccc(Cl)cc1`: on DNA ligase 1 [1], the midpoint of inhibition, the IC50, lay at 26.5 µM.
Take `Cc1ccc(/C=C2\CN(C(=S)NCCc3ccccc3)C/C(=C\c3ccc(C)cc3)C2=O)cc1`: the IC50 in the data set on MDA-MB-231 [2], in the data set on HepG2 [3], with DLD-1 [4], in the data set on HT-29, in the data set with 4T1 and in the data set with HCT-116 [6] was less than 10 µM each time. In the data set with HeLa, this compound yielded an IC50 of less than 10 µM. On DNA ligase 1 [5], this compound gave an inhibition of more than 75%.
For `COc1cccc(NC(=S)NCC23C=CC(O2)C2C(=O)N(c4ccccc4Cl)C(=O)C23)c1` (configuration not stated), on DNA ligase 1 [7], the inhibition is 22.4%.
Regarding `O=C1/C(=N\Nc2cn[nH]c(=O)c2Cl)c2cc(Br)ccc2N1c1ccccc1`, the midpoint of inhibition on DNA ligase 1 [1], the IC50, lay at 36.4 µM.
As to `COc1cc2c(ccc3c4cc(OC)c(OC)cc4c[n+](C)c23)cc1O` [FAGARONINE], the IC50 on DNA ligase 1 [9] is 25.9 µM.
`CCOC(=O)C1=C(C)NC(=O)NC1c1cc(C)c(O)c(/C=N/NC(N)=S)c1` (configuration not stated) registered an Activity in the data set on HEK293 of more than 80%. Moreover, the inhibition at 100 µM in the data set on HCT-116 [10], in the data set with HepG2 [11], in the data set with A549, in the data set on DLD-1 [12] and in the data set with MDA-MB-231 [13] was more than 80% throughout.
For the compound `CCOC(=O)C1=C(C)NC(=O)NC1c1cc(/C=N/NC(=S)Nc2ccc(Cl)cc2)c(O)c(C(C)(C)C)c1` (configuration not stated), the Activity in the data set with HEK293 is given as more than 80%. Further, the inhibition at 100 µM in the data set on HCT-116 [10], with HepG2 [11], in the data set with A549, in the data set on DLD-1 [12] and with MDA-MB-231 [13] was more than 80% in each case.
On DNA ligase 1 [9], `C=C1C(=O)OC(CCCCCCCCCCCCC)C1C(=O)O` (stereo not drawn) [(+/-)-Protolichesterinic acid] showed a concentration for half-maximal inhibition (IC50) of 18.5 µM.
As for `CCOC(=O)C1=C(C)NC(=O)NC1c1cc(C)c(O)c(/C=N/NC(N)=O)c1` (configuration not stated), in the data set on HEK293, the Activity is recorded as less than 80%. The inhibition at 100 µM in the data set with HCT-116 [10], in the data set on HepG2 [11], with A549, in the data set on DLD-1 [12] and with MDA-MB-231 [13] was less than 80% in each case.
Regarding `CC1(C)CC[C@]2(C(=O)O)CC[C@]3(C)C(=CC[C@@H]4[C@@]5(C)CC[C@H](O)C(C)(C)[C@@H]5CC[C@]43C)[C@@H]2C1` [OLEANOLIC_ACID], the IC50 against DNA ligase 1 [9] was 186 µM.
With `COc1ccc(NC(=O)Nc2ccc3nc(C)cc(NC(=O)c4ccccc4Cl)c3c2)cc1`, on DNA ligase 1 [7], the inhibition is 12.2%.
In turn, `O=C1Nc2ccc(Cl)cc2/C1=N/Nc1cn[nH]c(=O)c1Cl` showed an IC50 at DNA ligase 1 [1] of 14.1 µM.
Turning to `CCOC(=O)C1=C(C)NC(=S)NC1c1cc(/C=N/NC(=O)Nc2ccc(Cl)cc2)c(O)c(C(C)(C)C)c1` (configuration not stated), in the data set with HEK293, the Activity is reported as less than 80%. Moreover, the inhibition at 100 µM with HCT-116 [10], in the data set on HepG2 [11], in the data set with A549, with DLD-1 [12] and in the data set with MDA-MB-231 [13] was less than 80% in each case.
